What was measured:
[1] = biological target: T1, Multidrug resistance-associated protein 1 (Homo sapiens, UniProt P33527); test: TP_TRANSPORTER: inhibition of LTC4 uptake (LTC4: 0.05 uM) in membrane vesicle from MRP1-expressing HeLa cells; assay type: functional, cell membranes
[2] = biological target: T1, Multidrug resistance-associated protein 1; test: TP_TRANSPORTER: uptake in membrane vesicle from MRP1-expressing HeLa cells; assay type: functional, cell membranes
[3] = biological target: T2, ATP-binding cassette sub-family C member 2 (Rattus norvegicus, UniProt Q63120); test: TP_TRANSPORTER: inhibition of LTC4 uptake (LTC4: 0.05 uM) in bile canalicular membranes from Wistar rat; assay type: functional, cell membranes, Bile canalicular membrane
T2 sequence (Q63120 whole entry): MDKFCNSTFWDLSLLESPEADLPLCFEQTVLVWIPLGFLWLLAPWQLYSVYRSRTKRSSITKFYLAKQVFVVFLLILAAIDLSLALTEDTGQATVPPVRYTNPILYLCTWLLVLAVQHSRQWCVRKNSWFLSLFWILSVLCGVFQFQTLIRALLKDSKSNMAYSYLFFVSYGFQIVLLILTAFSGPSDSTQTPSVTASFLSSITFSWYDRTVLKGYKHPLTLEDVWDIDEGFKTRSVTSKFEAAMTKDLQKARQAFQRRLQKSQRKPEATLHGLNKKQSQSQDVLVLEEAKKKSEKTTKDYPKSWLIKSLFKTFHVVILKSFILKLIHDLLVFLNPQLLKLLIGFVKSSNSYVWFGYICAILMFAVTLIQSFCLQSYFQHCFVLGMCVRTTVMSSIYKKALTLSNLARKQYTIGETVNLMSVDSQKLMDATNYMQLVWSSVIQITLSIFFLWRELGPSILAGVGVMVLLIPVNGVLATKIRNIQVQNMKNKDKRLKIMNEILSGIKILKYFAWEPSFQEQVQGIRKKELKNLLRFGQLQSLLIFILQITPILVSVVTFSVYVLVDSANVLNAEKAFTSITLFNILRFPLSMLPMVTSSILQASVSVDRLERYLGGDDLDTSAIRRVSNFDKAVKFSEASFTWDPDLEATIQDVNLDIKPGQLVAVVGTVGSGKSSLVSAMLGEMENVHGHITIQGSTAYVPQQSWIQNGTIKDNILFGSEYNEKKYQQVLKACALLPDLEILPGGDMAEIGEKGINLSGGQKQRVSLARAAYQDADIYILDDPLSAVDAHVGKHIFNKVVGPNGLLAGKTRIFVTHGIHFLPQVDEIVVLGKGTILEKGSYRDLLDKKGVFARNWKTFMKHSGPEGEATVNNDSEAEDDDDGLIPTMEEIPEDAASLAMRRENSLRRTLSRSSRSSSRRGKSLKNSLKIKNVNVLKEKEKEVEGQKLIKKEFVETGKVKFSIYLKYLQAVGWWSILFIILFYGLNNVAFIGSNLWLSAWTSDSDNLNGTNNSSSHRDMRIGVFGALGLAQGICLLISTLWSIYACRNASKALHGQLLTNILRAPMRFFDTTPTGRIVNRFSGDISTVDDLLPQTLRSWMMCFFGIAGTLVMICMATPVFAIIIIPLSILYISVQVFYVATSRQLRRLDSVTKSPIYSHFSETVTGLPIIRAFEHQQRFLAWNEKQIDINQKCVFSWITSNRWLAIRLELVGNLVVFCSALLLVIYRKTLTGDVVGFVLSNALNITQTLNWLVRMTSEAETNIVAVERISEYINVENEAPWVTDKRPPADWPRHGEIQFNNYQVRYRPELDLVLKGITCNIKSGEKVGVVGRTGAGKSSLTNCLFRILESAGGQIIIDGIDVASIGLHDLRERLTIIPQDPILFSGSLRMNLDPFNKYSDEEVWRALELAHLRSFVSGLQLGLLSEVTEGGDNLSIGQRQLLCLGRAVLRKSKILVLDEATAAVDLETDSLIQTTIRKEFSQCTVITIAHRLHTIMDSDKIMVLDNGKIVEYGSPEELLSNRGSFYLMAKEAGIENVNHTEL

[4] = biological target: ATP-binding cassette sub-family C member 2 (Homo sapiens, UniProt Q92887); test: TP_TRANSPORTER: inhibition of LTC4 uptake (LTC4: 0.05 uM) in HepG2 cells; assay type: functional, cell-based
Chain of ATP-binding cassette sub-family C member 2 (Homo sapiens, UniProt Q92887) (Q92887 whole entry): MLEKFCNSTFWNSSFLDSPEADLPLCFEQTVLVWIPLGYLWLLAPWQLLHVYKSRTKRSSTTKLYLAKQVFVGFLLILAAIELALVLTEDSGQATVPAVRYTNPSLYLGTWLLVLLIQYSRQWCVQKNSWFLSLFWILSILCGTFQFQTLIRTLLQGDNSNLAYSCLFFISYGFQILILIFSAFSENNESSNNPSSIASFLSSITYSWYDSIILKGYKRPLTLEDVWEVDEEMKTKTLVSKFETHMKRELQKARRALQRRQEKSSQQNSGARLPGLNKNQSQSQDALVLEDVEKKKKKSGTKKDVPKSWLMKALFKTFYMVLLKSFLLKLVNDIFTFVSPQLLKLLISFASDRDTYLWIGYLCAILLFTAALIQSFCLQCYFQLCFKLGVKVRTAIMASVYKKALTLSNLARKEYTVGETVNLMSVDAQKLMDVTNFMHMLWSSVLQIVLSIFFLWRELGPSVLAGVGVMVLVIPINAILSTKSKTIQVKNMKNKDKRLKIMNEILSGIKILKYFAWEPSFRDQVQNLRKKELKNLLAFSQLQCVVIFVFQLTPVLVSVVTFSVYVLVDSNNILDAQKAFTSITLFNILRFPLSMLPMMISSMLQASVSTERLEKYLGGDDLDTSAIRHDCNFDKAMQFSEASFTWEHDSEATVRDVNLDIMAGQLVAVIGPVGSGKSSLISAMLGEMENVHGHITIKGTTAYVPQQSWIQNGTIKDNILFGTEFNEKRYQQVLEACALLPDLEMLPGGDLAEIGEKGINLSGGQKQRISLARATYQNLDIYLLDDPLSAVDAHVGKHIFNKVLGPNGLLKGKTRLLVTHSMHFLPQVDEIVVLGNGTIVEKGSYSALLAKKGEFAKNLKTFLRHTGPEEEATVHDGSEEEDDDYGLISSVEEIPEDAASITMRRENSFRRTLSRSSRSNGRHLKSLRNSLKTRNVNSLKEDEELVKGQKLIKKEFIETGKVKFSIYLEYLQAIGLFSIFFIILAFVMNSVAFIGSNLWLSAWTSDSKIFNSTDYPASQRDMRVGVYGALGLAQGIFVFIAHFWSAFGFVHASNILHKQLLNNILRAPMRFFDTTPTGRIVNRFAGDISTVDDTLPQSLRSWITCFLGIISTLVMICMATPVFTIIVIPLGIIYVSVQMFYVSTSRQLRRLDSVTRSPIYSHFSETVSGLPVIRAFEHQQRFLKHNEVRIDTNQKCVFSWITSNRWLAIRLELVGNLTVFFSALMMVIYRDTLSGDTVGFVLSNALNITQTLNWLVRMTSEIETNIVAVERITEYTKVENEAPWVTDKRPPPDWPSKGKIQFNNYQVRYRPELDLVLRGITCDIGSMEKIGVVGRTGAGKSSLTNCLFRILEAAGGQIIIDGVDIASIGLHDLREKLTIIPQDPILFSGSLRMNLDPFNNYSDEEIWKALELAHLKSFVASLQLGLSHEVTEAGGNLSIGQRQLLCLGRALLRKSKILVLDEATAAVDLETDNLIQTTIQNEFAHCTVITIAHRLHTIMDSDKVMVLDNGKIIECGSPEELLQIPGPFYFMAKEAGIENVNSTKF

[5] = biological target: T2, ATP-binding cassette sub-family C member 2; test: TP_TRANSPORTER: uptake in bile canalicular membranes from Wistar/TR- rat; assay type: functional, cell membranes, Bile canalicular membrane

T1 sequence (P33527 whole entry): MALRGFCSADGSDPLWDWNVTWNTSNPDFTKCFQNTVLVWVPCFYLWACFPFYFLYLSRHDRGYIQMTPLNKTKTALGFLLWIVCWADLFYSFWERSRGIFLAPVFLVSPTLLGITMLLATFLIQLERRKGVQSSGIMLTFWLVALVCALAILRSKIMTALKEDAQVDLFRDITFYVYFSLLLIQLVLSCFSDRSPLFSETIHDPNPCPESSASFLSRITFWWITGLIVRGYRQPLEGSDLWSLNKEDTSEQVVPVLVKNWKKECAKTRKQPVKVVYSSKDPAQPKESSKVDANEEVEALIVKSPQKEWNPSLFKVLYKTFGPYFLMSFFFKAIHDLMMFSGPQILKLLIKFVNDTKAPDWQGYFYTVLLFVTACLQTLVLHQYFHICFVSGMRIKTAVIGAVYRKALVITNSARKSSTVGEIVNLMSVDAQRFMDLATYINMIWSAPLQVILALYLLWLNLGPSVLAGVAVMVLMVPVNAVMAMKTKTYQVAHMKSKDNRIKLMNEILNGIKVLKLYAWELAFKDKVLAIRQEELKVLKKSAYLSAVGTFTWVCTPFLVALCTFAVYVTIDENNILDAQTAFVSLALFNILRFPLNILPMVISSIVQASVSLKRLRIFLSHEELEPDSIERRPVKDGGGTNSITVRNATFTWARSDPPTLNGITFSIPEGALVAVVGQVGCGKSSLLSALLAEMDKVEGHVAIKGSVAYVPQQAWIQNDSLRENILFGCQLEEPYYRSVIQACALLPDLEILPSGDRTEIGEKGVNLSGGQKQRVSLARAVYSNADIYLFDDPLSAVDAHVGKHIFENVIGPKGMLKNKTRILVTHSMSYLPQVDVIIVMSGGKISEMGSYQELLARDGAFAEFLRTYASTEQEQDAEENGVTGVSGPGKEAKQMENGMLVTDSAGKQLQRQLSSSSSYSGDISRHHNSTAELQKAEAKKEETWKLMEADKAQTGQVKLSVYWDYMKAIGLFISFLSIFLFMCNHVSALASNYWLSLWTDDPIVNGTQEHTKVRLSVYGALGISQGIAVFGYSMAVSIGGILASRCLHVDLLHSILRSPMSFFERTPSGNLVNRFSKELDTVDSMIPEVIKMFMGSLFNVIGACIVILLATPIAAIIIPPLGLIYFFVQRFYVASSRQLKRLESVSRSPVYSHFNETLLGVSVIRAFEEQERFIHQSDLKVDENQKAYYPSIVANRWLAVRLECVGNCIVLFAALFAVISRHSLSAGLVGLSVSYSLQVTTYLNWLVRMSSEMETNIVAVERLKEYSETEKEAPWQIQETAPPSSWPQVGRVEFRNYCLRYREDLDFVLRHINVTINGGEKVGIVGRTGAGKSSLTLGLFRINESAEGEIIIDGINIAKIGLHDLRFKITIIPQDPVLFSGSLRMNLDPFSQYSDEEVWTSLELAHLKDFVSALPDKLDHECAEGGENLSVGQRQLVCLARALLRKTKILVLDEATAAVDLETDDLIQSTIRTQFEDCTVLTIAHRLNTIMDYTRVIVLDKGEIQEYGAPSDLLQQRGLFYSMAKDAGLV

IC50 [1] | Activity [2] | IC50 [3] | IC50 [4] | Activity [5] | SMILES
750 nM | substrate [+] | 100 nM | 400 nM | substrate [+] | C=CC1=C(C)/C(=C/c2[nH]c(Cc3[nH]c(/C=C4\NC(=O)C(C)=C4C=C)c(C)c3CCC(=O)O[C@@H]3O[C@@H](C(=O)O)[C@H](O)[C@@H](O)[C@@H]3O)c(CCC(=O)O[C@@H]3O[C@H](C(=O)O)[C@H](O)[C@H](O)[C@@H]3O)c2C)NC1=O
420 nM | substrate [+] | 120 nM | 280 nM | substrate [+] | C=CC1=C(C)/C(=C/c2[nH]c(Cc3[nH]c(/C=C4\NC(=O)C(C)=C4C=C)c(C)c3CCC(=O)O[C@@H]3OC(C(=O)O)[C@@H](O)C(O)C3O)c(CCC(=O)O)c2C)NC1=O (stereo not given in full) [BILIRUBIN MONOGLUCURONIDE]
